Data set [1] deals with T1, hSEP (sol hu)(his)6; His6-tagged hSEP ectodomain (Homo sapiens, UniProt Q495T6).
T1 construct: His6-tagged hSEP ectodomain; His6; purchased Innogenetics, Ghent, Belgium
T1 sequence (Q495T6 49-779 limits assumed): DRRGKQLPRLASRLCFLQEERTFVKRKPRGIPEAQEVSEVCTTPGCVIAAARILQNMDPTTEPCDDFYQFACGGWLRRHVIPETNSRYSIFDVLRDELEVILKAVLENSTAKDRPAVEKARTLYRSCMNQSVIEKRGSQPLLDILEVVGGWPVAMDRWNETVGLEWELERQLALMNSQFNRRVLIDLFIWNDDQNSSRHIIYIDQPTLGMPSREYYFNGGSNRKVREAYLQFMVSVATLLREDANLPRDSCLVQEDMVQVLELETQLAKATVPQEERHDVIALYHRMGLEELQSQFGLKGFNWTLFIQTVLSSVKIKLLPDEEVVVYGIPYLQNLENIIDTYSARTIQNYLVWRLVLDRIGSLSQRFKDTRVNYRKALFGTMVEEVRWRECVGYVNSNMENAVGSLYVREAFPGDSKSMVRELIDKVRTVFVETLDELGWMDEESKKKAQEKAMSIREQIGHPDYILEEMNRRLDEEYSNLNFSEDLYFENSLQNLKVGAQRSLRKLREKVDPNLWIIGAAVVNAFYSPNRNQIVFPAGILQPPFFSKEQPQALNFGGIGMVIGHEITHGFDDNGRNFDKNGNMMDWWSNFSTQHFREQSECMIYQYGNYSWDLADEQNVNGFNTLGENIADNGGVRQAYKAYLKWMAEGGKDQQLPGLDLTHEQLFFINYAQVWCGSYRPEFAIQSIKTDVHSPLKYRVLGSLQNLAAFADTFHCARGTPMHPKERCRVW
As to the kind of experiment: Enzymatic breakdown of CNP and VIP by hSEP and its inhibition, in vitro, HPLC. The format is biochemical. Particulars: no inhibitor, 37° C. How it is done: The inhibition of the enzymatic breakdown of CNP and VIP by the compounds used according to the invention was measured in an enzymatic in vitro assay according to the following protocol:
All test compounds were dissolved in DMSO at 10 mM and further diluted with assay buffer.
80 μl of assay buffer, 10 μl of enzyme working solution (NEP or hSEP) and 10 μl of peptide stock solution (VIP or CNP) were mixed in an Eppendorf vial and incubated for 120 min. at 37° C. The enzymatic reaction was subsequently terminated by heating to 95° C. for 5 min. After centrifugation (Heraeus Biofuge B, 3 min) the supernatant was subjected to HPLC.
70 μl of assay buffer, 10 μl of enzyme working solution (NEP or hSEP) and 10 μl of a test compound solution were mixed in an Eppendorf vial and preincubated at 37° C. for 15 minutes. Then, 10 μl of peptide stock solution (VIP or CNP) was added and the reaction mixture was incubated at 37° C. for 60 min. to allow enzymatic hydrolysis. The enzymatic reaction was subsequently terminated by heating to 95° C. for 5 min. After centrifugation (Heraeus Biofuge B, 3 min) the supernatant was subjected to HPLC. In order to separate the remaining substrate from the cleavage products, a reversed phase HPLC technique with a CC 125/4 Nucleosil 300/5 C18 RP column and a CC 8/4 Nucleosil 100/5 C18 precolumn (Macherey-Nagel, Düren, Germany) was used. 60 μl of the reaction samples were injected into the HPLC and the column was eluted at a flow rate of 1 ml/min with the following gradient:
All peptides were detected by absorbance at 214 nm (UV spectroscopy). The percentage (=%) of hydrolysis was calculated on the basis of the peak area of the undegraded peptide for an enzyme containing sample Y in correlation to a sample containing the same concentration of peptide without enzyme (blank) by the following equation: % hydrolysis=100*(blank−Y)
Basis of the calculation of % inhibition is the peak area of the undegraded peptide (VIP or CNP) for an inhibitor containing sample X in comparison to samples containing only peptide (blank) or peptide and enzyme without inhibitor (control) according to the following equation: % inhib=100*(X−control)/(blank−control)
All samples were run in duplicate and mean values were used. A solvent control (0.1% DMSO) was added to each assay run. CNP and VIP were cleaved by NEP and hSEP in vitro.

The target of data set [2] is T2, His6-tagged hSEP ectodomain (Homo sapiens, UniProt Q495T6).
T2 construct: His6-tagged hSEP ectodomain; His6; purchased Innogenetics, Ghent, Belgium
T2 sequence (Q495T6 49-779 limits assumed): T1 sequence (Q495T6 49-779 limits assumed)
As to the kind of experiment: In vitro investigation of the hSEP-inhibitory action (fluorescence-quenched Big-ET-1 analogue, HPLC). The format is biochemical. A digest of the protocol: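 Performed as for the NEP assay, with HPLC analysis and 10 nM phosphoramidon as the standard inhibitor. IC50 is the compound concentration blocking 50% of hSEP enzymatic activity.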

Data set [3] has as its system maximal SAP response to Big-ET. As to the kind of experiment: In vivo inhibition of maximal SAP response to Big-ET in anesthetized rats after oral administration. The conditions noted are these: oral by gavage, 100 μmol/kg, 1 h before Big-ET challenge; mean ± standard error; negative = inhibition. Also on record: species or system Rats (Sprague-Dawley). How it is done: Rats (Sprague-Dawley, CRLD=Charles River) were anaesthetised with 1 ml/kg Rompun/Ketavet 1:1. A pressure transducer (Statham) was inserted into the carotid artery to measure blood pressure.
For oral testing, the substances (or vehicle) were given by gavage at doses of 100 μmol/kg each, 1 h before the Big-ET challenge, and blood pressure and heart rate were monitored as described above.
The inhibition of maximal SAP response to Big-ET in anesthetized rats following oral administration of the test substances of Formula I is set forth in the following Table 3c: […]
Data given in table 3c as negative values indicate an inhibitory effect. Values are means from 3-6 independent series of experiments ±standard error.

Data set [4] concerns the target T3, soluble, human recombinant NEP (Homo sapiens, UniProt P08473).
T3 construct: soluble, human recombinant NEP; purchased Prof; Crine, University of Montreal, Canada
As to the kind of experiment: In-vitro investigation of the NEP inhibitory action (fluorescence-quenched Big-ET-1 analogue, HPLC). The format is biochemical. In short, it runs like this: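 Enzyme preincubated with test substance 15 min at 37° C, then incubated with fluorescence-quenched Mca peptide substrate 60 min at 37° C and stopped by heating to 95° C. Cleaved and intact peptide separated by reversed-phase HPLC; unquenched Mca peak area (ex 328/em 393 nm) gave % inhibition versus no-compound control, duplicates, IC50 derived.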

Data set [5] can be described thus: Plasma protein binding, equilibrium dialysis, rat plasma. The format is in vitro ADME. Particulars: rat plasma (10% for routine testing), 37° C., pH 7.4, 10% plasma (100% for low binders), read-out: % bound (rat plasma) (converted). How it is done:
(§1) Plasma protein binding of the test substances of Formula I was measured using a validated equilibrium dialysis method. The dialysis cells consisted of two halves separated by a semi-permeable membrane slightly tensioned in between. […] Before being used, the membranes were re-hydrated by soaking in water followed by the dialysis buffer. Plasma (10% for routine testing, and 100% for compounds found to have a low protein binding) was heated to 37° C. and adjusted to pH 7.4 before use. 5 μM test compound solutions (final dimethylsulfoxide concentration 0.5%) were prepared in isotonic phosphate buffer containing rat or human plasma. The plasma-containing solution was on one side of the membrane, and the plasma-free on the other. Incubations were performed overnight (10% plasma assay), or for 2 hours (100% plasma assay) in triplicate. The cells were mounted in a drive unit that rotated the cells and ensured a uniform equilibrium was obtained. The equilibrium was temperature controlled by the drive unit being immersed in a water bath at 37° C. At the end of the equilibration time, the cells were emptied. The solutions for each batch of compounds were combined into two groups (plasma-free and plasma-containing) then cassette analysed by LC-MS/MS using two sets of calibration standards for plasma-free (7 points) and plasma-containing solutions (6 points). The percentage of protein bound compound was calculated as follows: [formula] PC=sample concentration in protein containing side; PF=sample concentration in protein free side;
For orientation: In equilibrium dialysis only unbound substance equilibrates across the membrane.

Data set [6] in a line: Plasma protein binding, equilibrium dialysis, human plasma. The format is in vitro ADME. Particulars: human plasma (10% for routine testing), 37° C., pH 7.4, 10% plasma (100% for low binders), read-out: % bound (human plasma) (converted). How it is done:
as §1

pIC50: −log10 of the molar value.

T3 sequence (P08473 52-750 limits assumed): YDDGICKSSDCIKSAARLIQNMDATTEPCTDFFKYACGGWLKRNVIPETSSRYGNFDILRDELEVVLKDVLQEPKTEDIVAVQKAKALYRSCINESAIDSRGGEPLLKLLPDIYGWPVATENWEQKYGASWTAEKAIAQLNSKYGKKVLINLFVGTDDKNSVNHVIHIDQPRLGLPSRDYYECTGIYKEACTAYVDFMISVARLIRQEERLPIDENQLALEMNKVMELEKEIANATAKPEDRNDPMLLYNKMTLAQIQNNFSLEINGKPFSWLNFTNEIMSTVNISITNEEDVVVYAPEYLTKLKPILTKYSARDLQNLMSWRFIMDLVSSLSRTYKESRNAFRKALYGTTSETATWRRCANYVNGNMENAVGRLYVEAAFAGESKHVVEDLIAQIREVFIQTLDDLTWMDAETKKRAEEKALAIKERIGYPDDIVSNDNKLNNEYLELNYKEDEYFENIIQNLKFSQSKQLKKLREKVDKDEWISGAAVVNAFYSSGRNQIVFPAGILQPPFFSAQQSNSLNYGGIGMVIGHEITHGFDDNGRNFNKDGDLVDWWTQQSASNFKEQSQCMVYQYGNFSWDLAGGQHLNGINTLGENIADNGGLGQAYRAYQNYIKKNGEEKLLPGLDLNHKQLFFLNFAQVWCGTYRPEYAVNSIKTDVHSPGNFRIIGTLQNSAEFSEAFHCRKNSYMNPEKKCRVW

For the molecule “CNP: c-type natriuretic peptide, CNP (32-53), substrate of NEP and hSEP; supplier Bachem [reference compound]”, the “breakdown of CNP by hSEP, degradation at t = 2 h” value in data set [1] came to 46%.
`CCN(CCCN)C(=O)CC(CC1(C(=O)NC2CCc3ccccc3N(CC(=O)O)C2=O)CCCC1)C(=O)O` (stereo not shown) [Example 80, 4-[(3-aminopropyl)(ethyl)amino]-2-{[1-({[1-(carboxymethyl)-2-oxo-2,3,4,5-tetrahydro-1H-1-benzazepin-3-yl]amino}carbonyl)cyclopentyl]methyl}-4-oxobutanoic acid]: the negative logarithm of the IC50 (pIC50) (commonly −log10 of the IC50, conventionally taken in molar units) in data set [2] is 8.52; in data set [4] it was 7.80. The “% substance-related inhibition of the maximum Big-ET effect on SAP vs. control” value in data set [3] is reported as −43 ± 5%. Also, the fraction unbound at 5 μM in data set [5] is 0.73; in data set [6] it was 0.66.
For the molecule “VIP: vasoactive intestinal peptide, substrate of NEP and hSEP; supplier Bachem [reference compound]”, in data set [1], the “breakdown of VIP by hSEP, degradation at t = 2 h” value is recorded as 36%.
